Here are results for 29 compounds from patent EP3246028A1, “QUINOLINE COMPOUNDS FOR INCREASING INSULINE RELEASE” (Max-Planck-Gesellschaft zur Förderung der Wissenschaften …, priority 2016, dated 2017).

Test [1] relates to RIN-5AH insulinoma beta cell line. Description: Insulin secretion (insulin ELISA of supernatants). The format is cell-based. To be noted: RIN-5AH cells, 5 µM, treated in medium for 2 hours; read-out: AV_INSULIN (percent increase in insulin secretion over a DMSO control). As for the experimental part:
Culture medium and supplements were purchased from Life Technologies. The RIN-5AH insulinoma beta cell line was cultured in RPMI 1640 supplemented with 10% FBS, 2 mM glutamine. All culture media contained 1x penicillin-streptomycin. Cells were grown on 15 cm culture plates at 37°C under 5% CO2 in high humidity atmosphere.
To determine the insulin level from the supernatants insulin ELISA kits from Millipore or Mercodia were used. RIN-5AH cells were seeded in 96 well or 12 well plates and grown overnight. RIN-5AH cells never reached more than 80% confluency before treatment. Cells were washed once with PBS before treatment. Cells were treated in medium for 2 hours and with 5 µM of insulin secretagogue according to the present invention, if not otherwise indicated. After treatment 100ul of supernatant was taken. Samples were assayed immediately or stored at -20°C until measurement. Dilutions were made if necessary and ELISA was subsequently performed according to the user's manual. Insulin secretion was normalized to cell number by MTT assay or to total protein amount by BCA assay (ThermoFisher Scientific, 23225). Plates were read on BioTrek Elx800 absorbance reader at 450 nm.
RIN-5AH beta cells were treated with 5 µM compound 12 or 50 µM quinidine or chloroquine according to the above described protocol (Example 1).
In general terms: ELISA stands for enzyme-linked immunosorbent assay.

For test [2], the system named is RIN-5AH cells. Description: Calcium influx by FACS analysis (Fluo-4 AM fluorescence). The format is cell-based. To be noted: extracellular Ca2+ present, compound 12 at 5 µM, Figure 2. As to the method: Calcium influx was measured by FACS analysis, similar to protocols previously described (Brewis, I. A., journal of andrology 21, 238-249, doi:10.1002/j.1939-4640.2000.tb02101.x (2000); Vines, A., Cytometry Part A 77A, 1091-1097, doi:10.1002/cyto.a.20974 (2010); Schepers, E., Journal of Immunological Methods 348, 74-82, doi:http://dx.doi.org/10.1016/j.jim.2009.07.002 (2009)).
RIN-5AH cells (30,000 cells per well) were plated in 12 well plates and incubated overnight at 37°C and 5% CO2. Cells were stained with Fluo-4 AM (molecular probes, F14201) by using a 3µM stock solution prepared in HBSS with Ca2+ and Mg2+ (HBSS++) and with addition of a final amount of 0.02% Pluronic-F127 (molecular probes, P6867). Cells were incubated with 600ul of the dye/well for 1h at 37°C, in 5% CO2. They were washed 2x with Ca2+ and Mg2+ free HBSS (HBSS--) (Gibco, 14170) before moving to the next step of the protocol (see below).
Cells were trypsinized for three minutes at 37°C and 5% CO2. The cell suspension was then diluted by adding 1ml HBSS-- / well and centrifuged for 3 minutes at 1200 RPM. Cells were resuspended in 1 mL of HBSS++ or HBSS-- before starting the measurement. Base fluorescent signal was recorded for 30 seconds followed by treatment with the various compounds by quickly adding the compounds to the FACS analysis tubes, while acquisition was not interrupted (gaps). […] Samples were measured continuously for the desired time and all measurements were completed within 40 minutes. Unstained cells and stained cells in external buffer without Ca2+ and Mg2+ (HBSS--) were used as negative controls for the treatments. Data were acquired on BD-FACSCalibur and the visualizations were prepared by FlowJo software.
Background: A flow cytometer gives signals particle by particle.

“Also recorded” adds a separate entry of the source.

`N#Cc1cc(-c2cccc(N)c2)c2ccc(F)cc2n1` [Compound 1, 4-(3-aminophenyl)-7-fluoro-quinoline-2-carbonitrile]: in test [1], the activation at 5 µM was found to be 151%.

Regarding `CN(C)C(=O)c1cc(Nc2cc(C#N)nc3c(Br)cccc23)c(Cl)cc1Cl` [Compound 2, 5-[(8-bromo-2-cyano-4-quinolyl)amino]-2,4-dichloro-N,N-dimethyl-benzamide], the activation at 5 µM in test [1] came out at 125%.

For `COc1cc(Nc2cc(C#N)nc3c(Br)cccc23)c(Cl)cc1Cl` [Compound 3, 8-bromo-4-(2,4-dichloro-5-methoxy-anilino)quinoline-2-carbonitrile], in test [1], the activation at 5 µM was determined as 116%.

Turning to `COc1c(F)ccc2c(Nc3ccc(Cl)cc3C(F)(F)F)cc(C#N)nc12` [Compound 4, 4-[4-chloro-2-(trifluoromethyl)anilino]-7-fluoro-8-methoxy-quinoline-2-carbonitrile], the activation at 5 µM in test [1] worked out at 101%. Besides, in test [2], the “divalent calcium cation influx (Fluo-4 AM fluorescence by FACS)” value (“divalent calcium cation influx” for short) is “induced divalent calcium cation influx”.

On to `N#Cc1cc(Nc2ccc(Cl)cc2C(F)(F)F)c2cc(F)ccc2n1` [Compound 5, 4-[4-chloro-2-(trifluoromethyl)anilino]-6-fluoro-quinoline-2-carbonitrile], for which, in test [1], the activation at 5 µM turned out to be 96%. Moreover, in test [2], the “divalent calcium cation influx” value is “induced divalent calcium cation influx”.

Consider `N#Cc1cc(-c2cccc(NS(=O)(=O)c3c(F)cccc3F)c2)c2ccc(F)cc2n1` [Compound 6, N-[3-(2-cyano-7-fluoro-4-quinolyl)phenyl]-2,6-difluoro-benzenesulfonamide], for which the activation at 5 µM in test [1] worked out at 94%.

In the case of `N#Cc1cc(Nc2ccc(Cl)cc2C(F)(F)F)c2cccc(F)c2n1` [Compound 7, 4-[4-chloro-2-(trifluoromethyl)anilino]-8-fluoro-quinoline-2-carbonitrile], in test [1], the activation at 5 µM is 93%. Also, the “divalent calcium cation influx” value in test [2] is given as “induced divalent calcium cation influx; also recorded: induced Ca2+ influx”.

As for `COc1c(F)ccc2c(Nc3c(Cl)cccc3Cl)cc(C#N)nc12` [Compound 8, 4-(2,6-dichloroanilino)-7-fluoro-8-methoxy-quinoline-2-carbonitrile], in test [1], the activation at 5 µM worked out at 93%. In addition, the “divalent calcium cation influx” value in test [2] was “induced divalent calcium cation influx; also recorded: induced Ca2+ influx”.

On to `COc1cc2c(Oc3ccc(NS(=O)(=O)c4cccc(-c5ccccc5)c4)cc3F)ccnc2cc1OCCCN` [Compound 9, N-[4-[[7-(3-aminopropoxy)-6-methoxy-4-quinolyl]oxy]-3-fluoro-phenyl]-3-phenyl-benzenesulfonamide], for which, in test [1], the activation at 5 µM is 90%.

Turning to `COc1cc(Nc2cc(C#N)nc3ccc(F)cc23)c(Cl)cc1Cl` [Compound 10, 4-(2,4-dichloro-5-methoxy-anilino)-6-fluoro-quinoline-2-carbonitrile], the activation at 5 µM in test [1] stood at 89%.

For the compound `N#Cc1cc(-c2cccc(NC(=O)c3cccc(C(F)(F)F)c3)c2)c2ccc(F)cc2n1` [Compound 11, N-[3-(2-cyano-7-fluoro-4-quinolyl)phenyl]-3-(trifluoromethyl)benzamide], in test [1], the activation at 5 µM was 86%.

With `COc1cc2c(Nc3ccc(Cl)cc3C(F)(F)F)cc(C#N)nc2cc1F` [Compound 13, 4-[4-chloro-2-(trifluoromethyl)anilino]-7-fluoro-6-methoxy-quinoline-2-carbonitrile], in test [1], the activation at 5 µM was 83%. Besides, the “divalent calcium cation influx” value in test [2] was “induced divalent calcium cation influx; also recorded: induced Ca2+ influx”.

In the case of `N#Cc1cc(Nc2ccc(F)c(Cl)c2)c2cc(Cl)cc(Cl)c2n1` [Compound 14, 6,8-dichloro-4-(3-chloro-4-fluoro-anilino)quinoline-2-carbonitrile], the activation at 5 µM in test [1] turned out to be 78%.

Consider `COc1ccc2nc(C#N)cc(Nc3cc(OC)c(Cl)cc3Cl)c2c1` [Compound 15, 4-(2,4-dichloro-5-methoxy-anilino)-6-methoxy-quinoline-2-carbonitrile], for which the activation at 5 µM in test [1] worked out at 78%.

For the compound `COc1c(F)ccc2c(Nc3ccc(C)c(C)c3)cc(C#N)nc12` [Compound 16, 4-(3,4-dimethylanilino)-7-fluoro-8-methoxy-quinoline-2-carbonitrile], in test [1], the activation at 5 µM was determined as 78%.

Turning to `COc1cc(Nc2c(C#N)cnc3cc(OCCCN)c(OC)cc23)c(Cl)cc1Cl` [Compound 17, 7-(3-aminopropoxy)-4-(2,4-dichloro-5-methoxy-anilino)-6-methoxy-quinoline-3-carbonitrile], the activation at 5 µM in test [1] worked out at 74%.

Consider `N#Cc1cc(Nc2c(Cl)cccc2Cl)c2cccc(F)c2n1` [Compound 18, 4-(2,6-dichloroanilino)-8-fluoro-quinoline-2-carbonitrile], for which the activation at 5 µM in test [1] worked out at 73%. In addition, the “divalent calcium cation influx” value in test [2] is given as “induced divalent calcium cation influx; also recorded: induced Ca2+ influx”.

As for `COc1cc(Nc2cc(C#N)nc3c(F)cccc23)c(Cl)cc1Cl` [Compound 19, 4-(2,4-dichloro-5-methoxy-anilino)-8-fluoro-quinoline-2-carbonitrile], the activation at 5 µM in test [1] was 70%.

In the case of `COc1cc2c(Nc3ccc(Cl)cc3Cl)c(C#N)cnc2cc1OCCCN` [Compound 20, 7-(3-aminopropoxy)-4-(2,4-dichloroanilino)-6-methoxy-quinoline-3-carbonitrile], the activation at 5 µM in test [1] amounted to 67%.

For `COc1cc2c(Nc3c(Cl)cccc3Cl)cc(C#N)nc2cc1F` [Compound 21, 4-(2,6-dichloroanilino)-7-fluoro-6-methoxy-quinoline-2-carbonitrile], in test [1], the activation at 5 µM was 65%.

`COc1cc(Nc2cc(C#N)nc3c(C(F)(F)F)cccc23)c(Cl)cc1Cl` [Compound 22, 4-(2,4-dichloro-5-methoxy-anilino)-8-(trifluoromethyl)quinoline-2-carbonitrile]: the activation at 5 µM in test [1] stood at 58%.

Turning to `CN(C)Cc1cc(Nc2cc(C#N)nc3cc(F)ccc23)c(Cl)cc1Cl` [Compound 23, 4-[2,4-dichloro-5-(dimethylaminomethyl)anilino]-7-fluoro-quinoline-2-carbonitrile], the activation at 5 µM in test [1] worked out at 57%.

On to `COc1cc2nccc(-c3cccc(Nc4cc(C#N)nc5c(F)cccc45)c3)c2cc1OC` [Compound 24, 4-[3-(6,7-dimethoxy-4-quinolyl)anilino]-8-fluoro-quinoline-2-carbonitrile], for which the activation at 5 µM in test [1] turned out to be 57%.

As to `CN(C)C(=O)c1cc(Nc2cc(C#N)nc3c(F)cccc23)c(Cl)cc1Cl` [Compound 25, 2,4-dichloro-5-[(2-cyano-8-fluoro-4-quinolyl)amino]-N,N-dimethyl-benzamide], the activation at 5 µM in test [1] is 48%.

On to `COc1cc2c(Oc3ccc(NS(=O)(=O)c4cccc(-c5ccccc5)c4)cc3F)ccnc2cc1OCCCN1CCOCC1` [Compound 26, N-[3-fluoro-4-[[6-methoxy-7-(3-morpholinopropoxy)-4-quinolyl]oxy]phenyl]-3-phenyl-benzenesulfonamide], for which the activation at 5 µM in test [1] amounted to 47%.

As to `COc1cc2nccc(-c3cccc(Nc4cc(C(N)=O)nc5c(F)cccc45)c3)c2cc1OC` [Compound 27, 4-[3-(6,7-dimethoxy-4-quinolyl)anilino]-8-fluoro-quinoline-2-carboxamide], the activation at 5 µM in test [1] is 46%.

For `CN(C)C(=O)c1cc(Nc2cc(C#N)nc3cc(F)ccc23)c(Cl)cc1Cl` [Compound 28, 2,4-dichloro-5-[(2-cyano-7-fluoro-4-quinolyl)amino]-N,N-dimethyl-benzamide], in test [1], the activation at 5 µM amounted to 45%.

For the compound `N#Cc1cc(Nc2c(Cl)cccc2Cl)c2cc(F)ccc2n1` [Compound 29, 4-(2,6-dichloroanilino)-6-fluoro-quinoline-2-carbonitrile], the activation at 5 µM in test [1] was determined as 41%.

Turning to `COc1cc2c(Nc3cc(OC)c(Cl)cc3Cl)cc(C#N)nc2cc1F` [Compound 75, 4-(2,4-dichloro-5-methoxy-anilino)-7-fluoro-6-methoxy-quinoline-2-carbonitrile], the activation at 5 µM in test [1] is 116%.
